According to publication PMC7070897 (Molecules, 2020):
pIC50: −log10 of the molar value. Several values for one entry are separate records, joined by “and”; a condition that tells them apart may be missing. Identical values can stand only once. Like-named read-outs stand apart in the source and are kept apart here. Positions of bridges follow the written chain, without caps; N, C: chain ends. Residues, ends and D or L forms follow the SMILES beside them.

Tests used:
[1] = on-resin Ugi-4CR macrocyclisation (stapling), Lys side-chain amine (i) to Asp/Glu side-chain acid (i+4): 1) paraformaldehyde 4 eq, pyrrolidine 4 eq, THF/MeOH 1:1, 30 min (imine); 2) isocyanide R-NC 4 eq, DCM/TFE 1:1, overnight; then TFA/TIS/H2O cleavage; conditions: the molecule shown is the open-chain precursor, 18.0 h, 3 steps
[2] = tested on: Phytophthora infestans (Mont.) de Bary; conditions: for IC50: read-out: IC50 in μM, Phythophtora Infestants, Figures 1B and 2C, 96-well plate, OD 405 nm seven days after inoculation, triplicate, IC50 from dose-response curves by linear regression; for pIC50: read-out: Half maximal inhibitory concentration, Phytophthora Infestans
[3] = read-out: Half maximal inhibitory concentration, Septoria Tritici
[4] = read-out: Half maximal inhibitory concentration, Botrytis Cinerea

Row | Compound | pIC50 (Septoria tritici Desm.; [3]) | pIC50 (Botrytis cinerea Pers.; [4]) | pIC50 [2] | also measured
1 | C=NCCCC[C@H](NC(=O)[C@H](C)NC(=O)[C@H](CCCCNC(=O)OC(C)(C)C)NC(=O)[C@H](CC(C)C)NC(=O)[C@H](CC(C)C)NC(=O)[C@H](CCCCNC(=O)OC(C)(C)C)NC(=O)[C@H](C)NC(=O)[C@H](CC(C)C)NC(C)=O)C(=O)N[C@@H](C)C(=O)N[C@@H](CCCCNC(=O)OC(C)(C)C)C(=O)N[C@@H](C)C(=O)N[C@@H](CC(=O)O)C(N)=O |  |  |  | ring closure, conversion by HPLC (% crude UHPLC purity after cleavage) ([1]; 20-membered ring): 63 and 54
2 | C=NCCCC[C@H](NC(=O)[C@H](CCCCNC(=O)OC(C)(C)C)NC(=O)[C@H](CC(C)C)NC(C)=O)C(=O)N[C@@H](CC(C)C)C(=O)N[C@@H](CC(C)C)C(=O)N[C@@H](CCCCNC(=O)OC(C)(C)C)C(=O)N[C@@H](CCC(=O)O)C(=O)N[C@@H](CC(C)C)C(=O)N[C@@H](CC(C)C)C(=O)N[C@@H](CCCCNC(=O)OC(C)(C)C)C(=O)N[C@@H](CCCCNC(=O)OC(C)(C)C)C(=O)N[C@@H](CC(C)C)C(N)=O |  |  |  | ring closure, conversion by HPLC (% crude UHPLC purity after cleavage) ([1]; 21-membered ring): 68
3 | CC(=O)N[C@@H](CC(C)C)C(=O)N[C@@H](CCCCN)C(=O)N[C@@H](CCCCN)C(=O)N[C@@H](CC(C)C)C(=O)N[C@@H](CC(C)C)C(=O)N[C@@H](CCCCN)C(=O)N[C@@H](CCCCN)C(=O)N[C@H]1CCCCNC(=O)CC[C@@H](C(N)=O)NC(=O)[C@H](CCCCN)NC(=O)[C@H](CCCCN)NC(=O)[C@H](CC(C)C)NC1=O [Peptide 6, Ac-(cyclo-8,12))-[LKKLLKKKLKKE]-NH2] (Ac-LKKLLKKKLKKE-NH2; lactam 8-12) |  |  |  | pIC50 (Septoria tritici Desm.): 4.78; pIC50 (Botrytis cinerea Pers.): < 4.30; IC50 [2]: 18 µM
4 | Ac-(N-(2-(n-butylamino)-2-oxoethyl)-(cyclo-8,12))-[LAKLLKAKAKAD]-NH2 (sidechain bridge or staple) [Peptide 2] | < 4.30 | < 4.30 | 4.58 | 
5 | Ac-(N-(2-(n-dodecylamino)-2-oxoethyl)-(cyclo-8,12))-[LAKLLKAKAKAD]-NH2 (sidechain bridge or staple) [Peptide 3] | 5.23 | 5.01 | 4.84 | 
6 | Ac-(cyclo-8,12))-[LAKLLKAKAKAD]-NH2 (sidechain bridge or staple) [Peptide 4] | < 4.30 | < 4.30 | 4.68 | 
7 | Ac-LAKLLKAKAKAD-NH2 [Peptide 1] | < 4.30 | < 4.30 | < 4.30 | 
8 | Ac-LKKLLKKLLKKL-NH2 [Peptide 5, Ac-LKKLLKKLLKKL] |  |  |  | pIC50 (Septoria tritici Desm.): 5.35; pIC50 (Botrytis cinerea Pers.): < 4.30; IC50 [2]: 5.4 µM
